Source: the RepoRT retention time repository (doi:10.1016/j.aca.2011.12.065)

How the values were obtained:
[1] = RP, Waters ACQUITY UPLC BEH C18, 100 × 2.1 mm, 1.7 µm; A: water + 0.1% formic acid, pH 3; B: 80% acetonitrile + 20% acetone + 0.1% formic acid, pH 3; gradient (min/%B) 0/0 6/100; settings: stereoisomer not certain
[2] = RP, Waters ACQUITY UPLC HSS T3, 100 × 2.1 mm, 1.8 µm; A: water + 0.1% formic acid, pH 3; B: 30% methanol + 70% acetonitrile + 0.1% formic acid, pH 3; gradient (min/%B) 0.0/5 1.0/8 2.0/15 3.0/40 4.0/70 4.5/100 5.0/100 6.4/100 6.6/5.0 6.8/5.0 7.0/5.0; settings: stereoisomer not certain

O=C1CCC(C(=O)O)N1 (stereo not drawn) [Pyroglutamic acid]
LC retention time [1]: 0.836 min
LC retention time [2]: 0.731 min

Cn1cnc2c1c(=O)[nH]c(=O)n2C [theobromine]
LC retention time [1]: 1.37 min
LC retention time [2]: 2.14 min

O=c1c(O)c(-c2ccc(O)cc2)oc2cc(O)cc(O)c12 [kaempferol]
LC retention time [1]: 2.76 min
LC retention time [2]: 3.88 min

NC(CCC(=O)O)C(=O)O (stereo not drawn) [glutamic acid]
LC retention time [1]: 0.577 min
LC retention time [2]: 0.475 min

CN1CC(=O)NC1=N [Creatinine]
LC retention time [1]: 0.572 min
LC retention time [2]: 0.467 min

CC(CCC(=O)O)C1CCC2C3CCC4CC(O)CCC4(C)C3CC(O)C12C (stereo not drawn) [Deoxycholic acid]
LC retention time [1]: 3.94 min
LC retention time [2]: 4.62 min

CC(=O)CCC(=O)O [levulinic acid]
LC retention time [1]: 1.39 min
LC retention time [2]: 1.46 min

CC(CCC(=O)NCC(=O)O)C1CCC2C3CCC4CC(O)CCC4(C)C3CC(O)C12C (stereo not drawn) [glycodeoxycholic acid]
LC retention time [1]: 3.46 min
LC retention time [2]: 4.44 min

Cn1c(=O)[nH]c2ncn(C)c2c1=O [1,7-dimethylxanthine]
LC retention time [1]: 1.45 min
LC retention time [2]: 2.56 min

NC(CS)C(=O)O (stereo not drawn) [l-cysteine]
LC retention time [1]: 0.603 min
LC retention time [2]: 0.491 min

CC(O)C1NC(=O)C2CCCN2C1=O (stereo not drawn) [Cyclic(pro-thr)]
LC retention time [1]: 1.37 min
LC retention time [2]: 1.54 min

O=C(O)C(O)Cc1ccccc1 (stereo not drawn) [phenyllactic acid]
LC retention time [1]: 2.08 min
LC retention time [2]: 3.49 min

O=C(O)CC(O)(CC(=O)O)C(=O)O [Citric acid]
LC retention time [1]: 0.785 min
LC retention time [2]: 0.659 min

O=c1[nH]cc(C2OC(CO)C(O)C2O)c(=O)[nH]1 (stereo not drawn)
LC retention time [1]: 1.16 min
LC retention time [2]: 0.743 min

Nc1ccc(C(=O)NCC(=O)O)cc1 [p-aminohippuric acid]
LC retention time [1]: 1.29 min
LC retention time [2]: 1.2 min

CC(NCCCCC(N)C(=O)O)C(=O)O (stereo not drawn) [CEL]
LC retention time [1]: 0.571 min
LC retention time [2]: 0.459 min

Nc1ccn(C2OC(CO)C(O)C2O)c(=O)n1 (stereo not drawn) [cytidine]
LC retention time [1]: 0.749 min
LC retention time [2]: 0.533 min

NCCS(=O)O [hypotaurine]
LC retention time [1]: 0.576 min
LC retention time [2]: 0.468 min

NC(CCCNC1=NCC(=O)N1)C(=O)O (stereo not drawn)
LC retention time [1]: 0.561 min
LC retention time [2]: 0.459 min

CC(C)(O)CC(=O)O [3-hydroxy-3-methyl butanoic acid]
LC retention time [1]: 1.44 min
LC retention time [2]: 1.63 min

NC(CSSCC(N)C(=O)O)C(=O)O (stereo not drawn) [l-cystine]
LC retention time [1]: 0.546 min
LC retention time [2]: 0.447 min

O=C(O)c1ccc2ccccc2n1 [quinaldic acid]
LC retention time [1]: 1.68 min
LC retention time [2]: 2.86 min

CC(=O)NC(Cc1ccc(O)cc1)C(=O)O (stereo not drawn) [n-acetyl-l-tyrosine]
LC retention time [1]: 1.53 min
LC retention time [2]: 2.68 min

CC(CCC(=O)NCC(=O)O)C1CCC2C3CCC4CC(O)CCC4(C)C3CCC12C (stereo not drawn) [glycolithocholic acid]
LC retention time [1]: 3.56 min
LC retention time [2]: 4.61 min
